Laboratory results from ChEMBL document CHEMBL1201862, “PubChem BioAssay data set” (2004).
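Method: 48-hour compound exposure of cells in 96-well plates, five concentrations, linear interpolation of endpoints. GI50: concentration for 50% inhibition of growth.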 Active and inactive are the calls of the source. Rule as the data show it: active = GI50 up to about 1.1 µM and inactive = higher.

What was measured:
Experiment in all cases: NCI-60 cell line screen, 48 h
[1] = test system: MDA-N
[2] = test system: MDA-MB-435
[3] = test system: T47D
[4] = test system: XF498
[5] = test system: M19-MEL
[6] = test system: SNB-78
[7] = test system: DMS-114
[8] = test system: RXF 631

Measured: GI50

CCN1c2ccccc2-n2c(C)nnc2-c2c(-c3ccccc3)n[nH]c21
inactive: [1] 28 µM | [2] 16.2 µM | [3] 14.7 µM

Cc1cc(NC(=S)Nc2ccccc2)c(NC(=S)Nc2ccccc2)cc1C
inactive: [4] 16.4 µM | [5] 23.3 µM

CC(=O)OC1COC(N2c3ccccc3[C@@H]3CCc4c([nH]c5ccccc45)[C@@H]32)C(OC(C)=O)C1OC(C)=O.CC(=O)OC1COC(N2c3ccccc3[C@H]3CCc4c([nH]c5ccccc45)[C@H]32)C(OC(C)=O)C1OC(C)=O (stereo partly specified)
inactive: [1] 65.3 µM | [2] 51.8 µM

CC1=Nc2c(N)nc(N)nc2N(C)C1
inactive: [1] > 100 µM | [2] > 100 µM | [3] > 100 µM

CC(Sc1ccccc1)C(CO)(CO)[N+](=O)[O-] (stereo unspecified)
inactive: [5] 16.4 µM | [6] 22.3 µM | [7] 17.2 µM

CCC1C(C#N)=C(O)NC(O)=C1C#N
inactive: [4] > 100 µM | [5] > 100 µM | [6] > 100 µM | [7] > 100 µM | [8] > 100 µM

CCP(=O)(CC)C(Cl)(Cl)C(O)C(Cl)(Cl)Cl (stereo unspecified)
inactive: [1] > 100 µM | [3] > 100 µM

O=C(CCN1CCOCC1)/C(=C/c1ccccc1)c1ccccc1
inactive: [4] 6.5 µM | [5] 3.82 µM | [6] 5.51 µM | [7] 3.06 µM

C=C1C(=O)OC2C[C@@]3(C)CCCC(=C)C3CC12 (stereo partly specified)
inactive: [4] 3.69 µM | [6] 3.27 µM | [7] 16.2 µM

CCOC(=O)Cc1cc(OC)c(OC)cc1/C(Cl)=C(\C=O)c1ccc(OC)c(OC)c1
inactive: [4] 20 µM | [5] 22.6 µM | [6] 22.3 µM | [7] 18.2 µM | [8] 20.3 µM

CC(=O)c1c(-c2ccco2)c(C#N)c(=S)n(C2OC(CO)C(O)C(O)C2O)c1-c1ccccc1 (stereo unspecified)
inactive: [1] > 10 µM | [2] 29.2 µM | [3] 29.4 µM

COc1ccc(-c2cc(O)c3c(C)ccnc3n2)cc1
inactive: [3] 7.43 µM
